Results taken from US8680137B2, “Agents and methods for treating ischemic and other diseases” (Nono Inc., priority 2009, dated 2014).
Where two headings read alike, the source gives them in different places.

Key:
[1] = system: HeLa cervical cancer cells; assay: Cancer cell proliferation, HeLa; format: cell-based, human; conditions: FIG. 79
Method: (§1) To determine the breadth of efficacy in cancers, we examined the efficacy of a range of TRPM7 inhibitors for their ability to inhibit cell proliferation in cancer cell lines. Representative figures are included as examples.
(§2) Cells (Table 1) were grown to 70% confluency, trypsinized, counted, and seeded in 96-well flat-bottom plates at a final concentration of 2.5×10^3-5.0×10^3 cells/well in growth media containing 5% FBS (Day 0). Other well sizes and cell densities were used successfully as well. Cells were allowed to incubate in growth media for 24 hours to allow for maximum adhesion. Treatment with the test agent began on Day 1 and continued for 72 hours either with or without retreatment. At the 72 hour time point, viable cell numbers are quantified by the CellTiter-Glo® cell viability assay as described above, or using standard MTT, SRB or BrDU assays. Experiments were repeated at least twice with the same concentrations to determine growth inhibitory activity.
(§3) Data Collection—For the cell proliferation studies, data from each experiment was collected and expressed as % Cell Growth using the following calculation: % Cell Growth=(ftest/fvehicle)×100 Where ftest is the luminescent signal of the tested sample, and fvehicle is the luminescence of the vehicle in which the drug is dissolved (or appropriate measure for the other viability/proliferation measures). […]

[2] = system: H292 non small cell lung cancer; assay: Cancer cell proliferation, H292; format: cell-based; conditions: for IC50: Homo sapiens
Method: as §1, §2
as §3, with “measures). Dose response graphs and IC50 values were generated using standard software using the following variable slope equation:” for “measures).”

Y79 retinoblastoma cells = Y79 retinoblastoma cells seeded on cultured retinal explants (ex vivo); format: cell-based
Method: Retinal explants were surgically dissected and cultured by standard methods. One hundred thousand Y79 retinoblastoma cells were then seeded onto the retinas in culture and allowed to grow for 2 weeks on inserts in the presence or absence of 5 μM M6. Y79 cells were fluorescently labeled and intensity was counted (arbitrary fluorescence units). […] TRPM7 inhibitors may be useful in the reduction of tumor metastasis in addition to either reducing the proliferation or killing of cancer cells. FIG. 78 is a repetition of the experiment, observing the distribution of Y79 cells after 12 days of migration off the retina. The darker bars of each pair indicate fluorescence intensity of cells that have migrated off the retina.

B16F10 melanoma = assay: Murine tumor model of B16F10 melanoma; format: in vivo, mouse; conditions: intravenous 20 mg/kg once daily
Method: To evaluate the efficacy of TRPM7 inhibitors in vivo, M6 was selected to for a pilot evaluation of its ability to reduce tumor formation in a murine tumor model of B16F10 melanoma and a RXF-393 human renal cell carcinoma xenograft model of tumor proliferation. […] For each tumor model, an appropriate number of cells were injected into the right flank (˜3-5 million cells per animal in 0.1 ml 50% matrigel/50% media). When tumor sizes reached 100-150 mg, animals were randomized into control (vehicle only), positive control or M6. M6 was given by intravenous injection to 20 mg/kg once daily. Tumors were measured and the weights were calculated by standard means.

H9c2 cardiomyocytes = assay: Toxicity on H9c2 cardiomyocytes, PI uptake after 72 hours; format: cell-based, rat
Method: To differentiate between an anti-proliferative effect of the TRPM7 inhibitors and cellular toxicity, the compounds were added to various ‘non-cancerous’ cell lines at the same concentrations and the percentage of PI uptake was measured after 72 hours.

TRPM2 = target: T1, TRPM2 (Homo sapiens, UniProt O94759); assay: Agonist-induced Ca2+ changes in HEK293 cells transfected with TRPM2; format: cell-based
T1 construct: expressed in transfected cells; host or cells: HEK293
Method: (§4) To examine selectivity of a subset of these TRPM7 inhibitors, experiments were performed to determine whether TRPM7 antagonists cross-react with other ionic channels and receptors. […] From a therapeutic perspective, knowledge of cross-reactivity of candidate drugs could shed light on other ischemic mechanisms and raise awareness of potential side effects. M21 has no effect on voltage-sensitive Na+, and Ca2+ currents in cultured cortical neurons […] TRPM7-expressing HEK293 cells, but inhibits K+ currents by about 20% at membrane potentials of −10 mV. M21 had no effect on agonist-induced Ca2+ changes in HEK293 cells transfected with constructs for TRPM2, TRPM4, TRPM6, TRPV1, TRPC2 and TRPA1. M21 also has no effect on NMDA and AMPA receptor currents in cultured neurons. […] Similar experiments were performed with other TRPM7 inhibitors including M5 and M11.

TRPM6 = target: T2, TRPM6 (Homo sapiens, UniProt Q9BX84); assay: Agonist-induced Ca2+ changes in HEK293 cells transfected with TRPM6; format: cell-based
T2 construct: expressed in transfected cells; host or cells: HEK293
Method: as §4

TRPV1 = target: T3, TRPV1 (Homo sapiens, UniProt Q8NER1); assay: Agonist-induced Ca2+ changes in HEK293 cells transfected with TRPV1; format: cell-based
T3 construct: expressed in transfected cells; host or cells: HEK293
Method: as §4

TRPC2 = target: T4, TRPC2 (Mus musculus, UniProt Q9R244); assay: Agonist-induced Ca2+ changes in HEK293 cells transfected with TRPC2; format: cell-based
T4 construct: expressed in transfected cells; host or cells: HEK293
Method: as §4

TRPA1 = target: T5, TRPA1 (Homo sapiens, UniProt O75762); assay: Agonist-induced Ca2+ changes in HEK293 cells transfected with TRPA1; format: cell-based
T5 construct: expressed in transfected cells; host or cells: HEK293
Method: as §4

NMDA receptor = NMDA receptor currents in cultured neurons; format: cell-based
Method: as §4

AML12 hepatocytes = assay: Anoxia (OGD) in AML12 hepatocyte cultures; format: cell-based, mouse; conditions: 2 hour, 4 hour or 6 hour anoxia
Method: The ability of TRPM7 inhibitors to protect other types of cell cultures following exposure to anoxia, including non-neuronal cell cultures, has also been tested. In general, cultures of growing cells are exposed to a 1-6 hour period of anoxia, followed by addition of a TRPM7 at a range of concentrations upon removal from anoxic conditions. […] This implies that TRPM7 inhibitors may be useful both as a treatment for anoxic damage to patients presenting symptoms of a disorder associated with anoxic damage, or as a preventative measure. Such preventative measures can be chronic, such as treatment to protect against damage from heart attacks or strokes, or acute, to be given prior to or during surgical procedures, which may include but not be limited to procedures that involve endovascular invasion and have the possibility of dislodging material that may block blood flow through arteries. […]

TRPM7 = TRPM7 (Mus musculus, UniProt Q923J1); assay: IC50 for TRPM7 (assay not stated); set-up: expressed in transfected cells; host or cells: HEK293 cells, tet-induced TRPM7
TRPM7, sequence (Q923J1 whole entry): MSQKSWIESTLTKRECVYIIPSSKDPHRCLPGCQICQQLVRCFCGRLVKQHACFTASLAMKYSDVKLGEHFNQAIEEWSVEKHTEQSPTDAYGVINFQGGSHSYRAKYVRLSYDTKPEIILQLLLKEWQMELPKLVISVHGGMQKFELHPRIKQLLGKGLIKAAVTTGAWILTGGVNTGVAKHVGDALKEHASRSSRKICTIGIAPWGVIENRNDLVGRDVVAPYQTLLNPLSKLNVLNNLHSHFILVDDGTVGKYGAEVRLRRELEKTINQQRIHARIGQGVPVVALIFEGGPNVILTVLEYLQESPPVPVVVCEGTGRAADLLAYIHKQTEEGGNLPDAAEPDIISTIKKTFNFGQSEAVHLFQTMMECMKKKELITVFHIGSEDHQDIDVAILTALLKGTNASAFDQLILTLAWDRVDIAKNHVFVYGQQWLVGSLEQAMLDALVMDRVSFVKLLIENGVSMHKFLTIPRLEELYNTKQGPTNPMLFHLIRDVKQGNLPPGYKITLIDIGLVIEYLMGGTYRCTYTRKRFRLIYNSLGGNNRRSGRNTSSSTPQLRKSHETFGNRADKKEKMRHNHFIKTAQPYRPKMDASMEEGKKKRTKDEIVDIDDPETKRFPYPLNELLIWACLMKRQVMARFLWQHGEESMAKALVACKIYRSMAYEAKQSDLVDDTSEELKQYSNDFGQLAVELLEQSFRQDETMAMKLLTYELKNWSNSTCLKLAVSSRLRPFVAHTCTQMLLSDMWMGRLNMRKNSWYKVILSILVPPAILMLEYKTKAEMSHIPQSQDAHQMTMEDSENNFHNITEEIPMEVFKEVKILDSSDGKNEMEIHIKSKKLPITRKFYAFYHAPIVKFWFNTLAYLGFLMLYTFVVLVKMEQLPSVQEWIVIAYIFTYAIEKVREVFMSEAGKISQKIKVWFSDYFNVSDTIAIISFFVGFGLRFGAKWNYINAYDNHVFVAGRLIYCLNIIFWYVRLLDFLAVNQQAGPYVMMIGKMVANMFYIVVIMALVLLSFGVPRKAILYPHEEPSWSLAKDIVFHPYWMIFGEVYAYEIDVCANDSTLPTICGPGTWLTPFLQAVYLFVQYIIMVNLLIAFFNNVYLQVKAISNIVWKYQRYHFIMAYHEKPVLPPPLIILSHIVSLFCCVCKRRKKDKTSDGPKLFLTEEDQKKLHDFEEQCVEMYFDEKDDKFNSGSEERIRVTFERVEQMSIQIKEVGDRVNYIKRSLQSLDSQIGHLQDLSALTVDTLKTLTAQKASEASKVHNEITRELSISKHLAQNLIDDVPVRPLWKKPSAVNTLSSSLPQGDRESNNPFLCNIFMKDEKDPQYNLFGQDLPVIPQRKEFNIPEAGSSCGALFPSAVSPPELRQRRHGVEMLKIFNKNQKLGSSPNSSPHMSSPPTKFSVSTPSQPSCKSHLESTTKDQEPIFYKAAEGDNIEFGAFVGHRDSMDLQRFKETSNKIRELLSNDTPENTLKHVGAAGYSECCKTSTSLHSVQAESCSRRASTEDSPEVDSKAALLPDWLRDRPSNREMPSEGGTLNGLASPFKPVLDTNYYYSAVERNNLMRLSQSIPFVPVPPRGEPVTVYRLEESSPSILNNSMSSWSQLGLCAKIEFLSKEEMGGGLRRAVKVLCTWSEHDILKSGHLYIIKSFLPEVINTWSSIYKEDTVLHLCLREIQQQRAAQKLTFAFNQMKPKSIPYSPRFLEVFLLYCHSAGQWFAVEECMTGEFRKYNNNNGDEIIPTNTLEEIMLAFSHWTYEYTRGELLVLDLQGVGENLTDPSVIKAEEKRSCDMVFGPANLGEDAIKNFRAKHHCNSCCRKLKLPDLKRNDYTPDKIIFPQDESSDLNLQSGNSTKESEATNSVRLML

T1 sequence (O94759 whole entry): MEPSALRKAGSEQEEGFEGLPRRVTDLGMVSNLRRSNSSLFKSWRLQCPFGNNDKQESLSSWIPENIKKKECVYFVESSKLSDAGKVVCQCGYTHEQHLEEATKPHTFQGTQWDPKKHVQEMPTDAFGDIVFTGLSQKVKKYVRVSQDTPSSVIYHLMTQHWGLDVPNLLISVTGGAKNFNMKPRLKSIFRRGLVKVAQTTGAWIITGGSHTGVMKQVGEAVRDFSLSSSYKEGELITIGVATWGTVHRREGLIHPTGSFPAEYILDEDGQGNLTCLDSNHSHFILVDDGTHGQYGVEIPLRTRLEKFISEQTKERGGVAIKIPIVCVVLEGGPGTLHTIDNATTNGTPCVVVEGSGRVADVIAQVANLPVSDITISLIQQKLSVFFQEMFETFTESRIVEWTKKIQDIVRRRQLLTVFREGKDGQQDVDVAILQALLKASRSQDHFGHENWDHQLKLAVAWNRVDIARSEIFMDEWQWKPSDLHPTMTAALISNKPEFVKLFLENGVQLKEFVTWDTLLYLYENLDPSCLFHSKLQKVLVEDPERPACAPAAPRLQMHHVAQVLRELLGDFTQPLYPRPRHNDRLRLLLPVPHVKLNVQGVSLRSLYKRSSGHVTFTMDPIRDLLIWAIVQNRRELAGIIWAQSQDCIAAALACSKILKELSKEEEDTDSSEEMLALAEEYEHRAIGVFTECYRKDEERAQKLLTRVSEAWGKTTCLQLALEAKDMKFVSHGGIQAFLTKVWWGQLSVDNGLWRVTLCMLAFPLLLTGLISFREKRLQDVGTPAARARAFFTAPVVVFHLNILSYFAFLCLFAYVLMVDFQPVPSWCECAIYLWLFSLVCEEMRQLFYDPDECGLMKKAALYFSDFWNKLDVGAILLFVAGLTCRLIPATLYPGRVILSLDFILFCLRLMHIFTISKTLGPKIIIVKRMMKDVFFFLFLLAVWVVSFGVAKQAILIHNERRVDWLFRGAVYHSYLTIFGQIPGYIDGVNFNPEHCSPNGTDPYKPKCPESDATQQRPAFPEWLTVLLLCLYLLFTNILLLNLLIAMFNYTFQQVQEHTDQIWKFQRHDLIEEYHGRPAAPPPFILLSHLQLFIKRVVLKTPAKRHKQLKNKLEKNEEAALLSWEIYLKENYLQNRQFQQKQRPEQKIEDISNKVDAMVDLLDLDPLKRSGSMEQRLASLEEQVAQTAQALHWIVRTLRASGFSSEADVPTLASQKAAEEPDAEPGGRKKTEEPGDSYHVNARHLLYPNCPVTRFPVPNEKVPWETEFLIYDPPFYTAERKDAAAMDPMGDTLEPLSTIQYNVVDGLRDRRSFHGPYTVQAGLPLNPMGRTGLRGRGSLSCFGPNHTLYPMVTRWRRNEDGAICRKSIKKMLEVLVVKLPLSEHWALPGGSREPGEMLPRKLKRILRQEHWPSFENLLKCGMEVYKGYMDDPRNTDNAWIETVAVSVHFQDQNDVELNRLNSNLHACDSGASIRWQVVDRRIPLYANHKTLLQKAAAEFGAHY
T5 sequence (O75762 whole entry, species assumed): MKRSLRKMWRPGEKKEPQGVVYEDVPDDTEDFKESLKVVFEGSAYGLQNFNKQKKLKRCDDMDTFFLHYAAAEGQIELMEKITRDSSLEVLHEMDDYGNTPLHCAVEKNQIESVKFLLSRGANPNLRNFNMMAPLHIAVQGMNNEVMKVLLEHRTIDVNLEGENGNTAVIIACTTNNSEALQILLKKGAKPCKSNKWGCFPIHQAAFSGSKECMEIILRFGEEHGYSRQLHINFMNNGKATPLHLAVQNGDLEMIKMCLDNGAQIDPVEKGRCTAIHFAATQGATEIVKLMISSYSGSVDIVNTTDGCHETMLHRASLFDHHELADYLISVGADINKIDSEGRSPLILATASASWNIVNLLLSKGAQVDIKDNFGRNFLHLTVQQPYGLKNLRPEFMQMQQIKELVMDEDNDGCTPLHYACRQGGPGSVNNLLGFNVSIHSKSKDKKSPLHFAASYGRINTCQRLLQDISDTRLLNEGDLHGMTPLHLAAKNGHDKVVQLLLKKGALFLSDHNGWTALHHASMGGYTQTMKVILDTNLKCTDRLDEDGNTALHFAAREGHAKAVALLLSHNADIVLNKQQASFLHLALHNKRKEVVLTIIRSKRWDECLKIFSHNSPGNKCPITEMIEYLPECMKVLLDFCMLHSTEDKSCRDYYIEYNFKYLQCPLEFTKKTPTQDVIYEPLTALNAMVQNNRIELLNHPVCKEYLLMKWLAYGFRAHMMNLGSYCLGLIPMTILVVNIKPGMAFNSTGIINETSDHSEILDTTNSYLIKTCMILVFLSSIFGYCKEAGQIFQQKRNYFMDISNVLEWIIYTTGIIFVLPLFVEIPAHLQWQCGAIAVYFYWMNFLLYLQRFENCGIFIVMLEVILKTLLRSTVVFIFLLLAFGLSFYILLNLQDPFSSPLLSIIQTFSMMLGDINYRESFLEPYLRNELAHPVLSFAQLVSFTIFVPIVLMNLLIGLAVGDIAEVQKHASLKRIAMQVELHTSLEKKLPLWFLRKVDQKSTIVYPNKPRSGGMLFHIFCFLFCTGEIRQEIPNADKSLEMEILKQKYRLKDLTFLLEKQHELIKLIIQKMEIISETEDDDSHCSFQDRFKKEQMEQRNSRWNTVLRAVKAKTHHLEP

SMILES: COc1cc2c(cc1OC)C(c1sc3ccccc3c1Cl)=NCC2 [Compound M6]
- proliferation (BrDU incorporation) [1]: significantly reduce proliferation
- Demonstrated Reduction of Proliferation at or below 10 μM Inhibitor concentration ([2]; H292, >20% inhibition at 48-96 hours, MTT, SRB, luminescence or BrDU): H292 non small cell lung cancer
- IC50 ([2]; NCI-H292, 72 h, H292, Exp 1, 72 hours, read-out: IC50): 18.5 µM
- IC50 ([2]; NCI-H292, 72 h, H292, Exp 2, 72 hours, read-out: IC50): 15.9 µM
- IC50 ([2]; NCI-H292, H292, mean of Exp 1 and Exp 2, read-out: Mean IC50): 17.2 µM
- fluorescence of cells migrated off the retinal explant (Y79 retinoblastoma cells; 1 μM, 12 days, FIG. 78): significantly lower Y79 fluorescence off of the retinal explant
- amount of Y79 cells on cultured retinas (fluorescence) (Y79 retinoblastoma cells; 5 μM, 2 weeks): reduce the amount of Y79 cells
- ability of Y79 cells to migrate off of the retina (Y79 retinoblastoma cells; 5 μM, 2 weeks, FIG. 77 panel B): significantly reduced the ability of Y79 cells to migrate off of the retina
- melanoma tumor growth (B16F10 melanoma): reduces tumor growth

SMILES: O=C(Nc1ccc(F)cc1)C(Sc1ccc(Cl)cc1)c1ccccc1 (stereo not shown) [Compound M11]
- toxicity (PI uptake) (H9c2 cardiomyocytes; 5 μM): No toxicity
- toxicity (PI uptake) (H9c2 cardiomyocytes; 10 μM): slight toxicity

SMILES: Cc1c(Cc2ccc(Cl)c(Cl)c2)c(=O)oc2cc(O)ccc12 [Compound M21]
- effect on agonist-induced Ca2+ changes (TRPM2): no effect
- effect on agonist-induced Ca2+ changes (TRPM6): no effect
- effect on agonist-induced Ca2+ changes (TRPV1): no effect
- effect on agonist-induced Ca2+ changes (TRPC2): no effect
- effect on agonist-induced Ca2+ changes (TRPA1): no effect
- effect on NMDA receptor currents (NMDA receptor): no effect
- survival after anoxia (AML12 hepatocytes): can promote survival
- IC50 (TRPM7): 1 to 2 µM
